Measurements as given in patent US12268798B2, “Method for screening of unpleasant odor masking agents” (Takasago International Corporation, priority 2020, dated 2025).

How the values were obtained:
[1] = biological target: T1, olfactory receptor OR2L3 (Homo sapiens, UniProt Q8NG85); assay: Luciferase reporter gene assay: effect of suppressing the response of OR2L3 to unpleasant odor-causing substance; type: cell-based; conditions: for Effect of suppressing the response of OR2L3 to skatole: test substance mixed with skatole, ratio of Fold Increase value, FIGS. 6 to 9; for Effect of suppressing the response of OR2L3 to indole: test substance mixed with indole, FIGS. 10 to 12
T1 construct: N-terminal 20 amino acid residues of bovine rhodopsin (Rho tag); expressed in transfected cells; host or cells: HEK293T cells, transient lipofection with the pME18S expression vector, an RTP1S vector and the luciferase reporter vectors
T1 sequence (Q8NG85 1-312): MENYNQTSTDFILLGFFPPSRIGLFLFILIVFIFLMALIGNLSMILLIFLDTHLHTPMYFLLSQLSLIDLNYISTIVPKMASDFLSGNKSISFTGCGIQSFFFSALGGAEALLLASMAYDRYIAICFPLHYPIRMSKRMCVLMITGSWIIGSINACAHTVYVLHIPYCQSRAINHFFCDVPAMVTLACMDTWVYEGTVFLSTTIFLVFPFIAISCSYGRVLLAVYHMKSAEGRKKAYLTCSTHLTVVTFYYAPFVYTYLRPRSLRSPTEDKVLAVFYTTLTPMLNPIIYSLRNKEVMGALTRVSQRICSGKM
Procedure: (§1) 0.05 μg of the human olfactory receptor gene expression vector, 0.01 μg of an RTP1S vector, 0.01 μg of a firefly luciferase vector pGL4.29 containing a cAMP-responsive sequence promoter (Promega), and 0.005 μg of a Renilla luciferase vector pGL4.74 containing a thymidine kinase promoter (Promega) were dissolved in 10 μL of Opti-MEM I (gibco) to obtain a gene solution (for one well). 100 μL of HEK293T cells were seeded in each well of a 96-well plate (Biocoat manufactured by Corning) so as to reach confluency after 24 hours. According to the directions for use of Lipofectamine 3000, by the lipofection method, the gene solution was added to each well to perform gene transfer to cells, and culturing was performed under 5% carbon dioxide atmosphere at 37° C. for 24 hours.
After removing the culture medium, 50 μL of CD293 medium (gibco) (20 μM L-glutamine added) including measured concentration of an aroma compound as a sample was added to each well, and stimulation was performed for 3 hours. After that, the luciferase activity was measured according to the directions for use of Dual-Luciferase Reporter Assay System (Promega). The response strength of the olfactory receptor was expressed by the Fold Increase value, which is obtained by dividing the luciferase activity generated by stimulation of the aroma compound by the luciferase activity generated in the test system not including the aroma compound. […]
With respect to unpleasant odor masking agents (group of candidate substances) including Group A shown in Table 1, the effects of suppressing the response of OR2L3 that strongly responded to unpleasant odors were measured by means of luciferase reporter gene assay.
In luciferase reporter gene assay, skatole and Guava coeur (Ethyl 3-mercapto-2-methylbutyrate) were used by being mixed with a sample. The Fold Increase value in the test in which Guava coeur was not mixed was regarded as 1, and the ratio of the Fold Increase value in the test in which Guava coeur was mixed was obtained.
Guava coeur in the evaluation of the effect of suppressing the response of OR2L3 was replaced by Dextramber® (1-(2,2,6-trimethylcyclohexyl) hexan-3-ol, registered trademark), and the test was conducted in the same manner. […] Similarly, Guava coeur was replaced by Hindinol® (2-methyl-4-(2,2,3-trimethyl-3-cyclopentenyl)-2-buten-1-ol, registered trademark) and the test was conducted.
Regarding the unpleasant odor in the evaluation of the effect of suppressing the response of OR2L3, skatole was replaced by indole, and the test was conducted in the same manner. […]

[2] = tested on: skatole odor; assay: Sensory evaluation of unpleasant odor suppression ability (skatole), panel of 20 persons; type: in vivo, human; conditions: for Skatole strength: average rating of 20 persons, scale 0 to 10, unpleasant odor alone rated 8, 10 μL skatole diluted 100-fold plus 1 μL test substance, 1 hour at room temperature; for Effect of suppressing the unpleasant odors (in words): unpleasant odors = skatole or indole
Procedure: (§2) The unpleasant odor suppression ability of test substances having activity to inhibit receptor action was confirmed by sensory evaluation. A cotton ball on which 10 μL of skatole or indole diluted 100-fold with triethyl citrate as an unpleasant odor and 1 μL of a test substance were dropped was put into a plastic bottle (OZO-40 manufactured by Takemoto Yohki Co., Ltd.). The bottle was allowed to stand at room temperature for 1 hour to sufficiently volatilize odor molecules therein. The sensory evaluation test was conducted by a panel consisting of 20 persons, who made evaluation as follows: the odor strength in the case where the unpleasant odor was dropped solely was rated as 8, and the unpleasant odor strength in the case where the test substance was mixed was rated as from 0 (the unpleasant odor is not smelled) to 10 (the unpleasant odor is smelled very strongly). The average value was calculated from obtained numerical values.

[3] = tested on: indole odor; assay: Sensory evaluation of unpleasant odor suppression ability (indole), panel of 20 persons; type: in vivo, human; conditions: for Indole strength: average rating of 20 persons, scale 0 to 10, unpleasant odor alone rated 8, 10 μL indole diluted 100-fold plus 1 μL test substance, 1 hour at room temperature
Procedure: as §2

[4] = tested on: HEK293T cells in which OR2L3 was not expressed (Mock); assay: Mock test, luciferase reporter gene assay using cells in which OR2L3 was not expressed; type: cell-based, human
Procedure: as §1
(§3) After removing the culture medium, 50 μL of CD293 medium (gibco) (20 μM L-glutamine added) including measured concentration of an aroma compound as a sample was added to each well, and stimulation was performed for 3 hours. After that, the luciferase activity was measured according to the directions for use of Dual-Luciferase Reporter Assay System (Promega). The response strength of the olfactory receptor was expressed by the Fold Increase value, which is obtained by dividing the luciferase activity generated by stimulation of the aroma compound by the luciferase activity generated in the test system not including the aroma compound.
(§4) Responses of the olfactory receptor OR2L3 to skatole, indole, α-terpineol, 4-terpineol or p-methylacetophenone as a typical example of the unpleasant odor-causing substance were measured with various concentrations by means of luciferase reporter gene assay. […] Meanwhile, in the Mock test (using cells in which OR2L3 was not expressed), no response was shown. That is, it was shown that OR2L3 specifically responds to the respective unpleasant odor-causing substances.

[5] = biological target: T1, olfactory receptor OR2L3; assay: Luciferase reporter gene assay: response of olfactory receptor OR2L3 to unpleasant odor-causing substance; type: cell-based; conditions: various concentrations; HEK293T cells expressing OR2L3; FIGS. 1 to 5
Procedure: A human olfactory receptor gene was obtained by cloning according to the PCR method using Human Genomic DNA: Female (Promega) based on the sequence information registered in GenBank. The N-terminal 20 amino acid residues of bovine rhodopsin were incorporated into a pME18S vector, and the obtained human olfactory receptor gene was further incorporated downstream thereof, thereby obtaining a human olfactory receptor gene expression vector.
as §1, §3, §4

| Compound | Effect of suppressing the response of OR2L3 to skatole [1] | Skatole strength [2] | Indole strength [3] | Response in the Mock test [4] | Response of the olfactory receptor OR2L3 (Fold Increase) [5] | Effect of suppressing the unpleasant odors (in words) ([2]; sensory evaluation) | also measured |
| --- | --- | --- | --- | --- | --- | --- | --- |
| Methyl fenchol | suppresses | 3.3 | 3.1 | – | – | – | Suppression of the strength of skatole odor (in words) ([2]; sensory evaluation): significantly suppressed; Suppression of the strength of indole odor (in words) ([3]; sensory evaluation): suppressed |
| Cc1c[nH]c2ccccc12 [skatole] | – | – | – | no response | concentration-dependent responses | – | – |
| CC/C=C\CCOC(=O)CCCCC [cis-3-hexenyl hexanoate, reference compound] | concentration-dependently reducing | – | – | – | – | – | – |
| CCOC(=O)C(C)C(C)S (stereo not shown) [Ethyl 3-mercapto-2-methylbutyrate] | concentration-dependently reducing | 3.0 | 3.3 | – | – | suppress | Effect of suppressing the response of OR2L3 to indole [1]: concentration-dependently reducing |
| CC1=CCC(O)(C(C)C)CC1 (stereo not shown) [4-terpineol] | – | – | – | no response | concentration-dependent responses | – | – |
| CC(c1ccccc1)C1CC1C(C)(C)O (stereo not shown) [Dimethyl-2-(1-phenylethyl)cyclopropylmethanol] | – | 2.5 | 2.4 | – | – | suppress | – |
| c1ccc2[nH]ccc2c1 [indole] | – | – | – | no response | concentration-dependent responses | – | – |
| CC1=CCC(C(C)(C)O)CC1 (stereo not drawn) [α-terpineol] | – | – | – | no response | concentration-dependent responses | – | – |
| O=C1CCCC=CCCCCCCCCCC1 [5-cyclohexadecenone] | – | 4.2 | 3.6 | – | – | suppress | – |
| CCCC(O)CCC1C(C)CCCC1(C)C (stereo not shown) [1-(2,2,6-trimethylcyclohexyl)hexan-3-ol] | concentration-dependently reducing | 4.0 | 3.9 | – | – | suppress | Effect of suppressing the response of OR2L3 to indole [1]: concentration-dependently reducing |
| CC1CCC(C(C)(C)S)C(=O)C1 (stereo not shown) [p-mentha-8-thio1-3-one, p-mentha-8-thiol-3-one] | – | 3.9 | 3.7 | – | – | suppress | – |
| CC(=O)c1ccc(C)cc1 [p-methylacetophenone] | – | – | – | no response | concentration-dependent responses | – | – |
| CC(C)(C)C1CCC(O)CC1 (stereo not shown) [4-t-butyleyclohexanol, 4-t-butylcyclohexanol, reference compound] | did not suppress | 6.3 | 6.0 | – | – | – | – |
| CC(=CCC1CC=C(C)C1(C)C)CO (stereo not shown) [2-methyl-4-(2,2,3-trimethyl-3-cyclopentenyl)-2-buten-1-ol] | concentration-dependently reducing | 3.6 | 4.1 | – | – | suppress | Effect of suppressing the response of OR2L3 to indole [1]: concentration-dependently reducing |
| CCCCCCOC(=O)c1ccccc1O [Hexyl salicylate, hexyl salicylate, reference compound] | did not suppress | 6.9 | 6.7 | – | – | – | – |
